Laboratory results reported in patent US20260337182A1, “COMPOUNDS AND COMPOSITIONS USEFUL AS INHIBITORS OF IAPs” (Tract Pharmaceuticals, Inc., priority 2022, published 2026).

Assays:
[1] = system: Barrett's high grade dysplasia stem cells; test: percent survival of Barrett's high grade dysplasia stem cells; assay type: cell-based, human; conditions: FIG. 5A, 5B
Excerpt: FIG. 5 depicts treatment of Barrett's high grade dysplasia and diffuse gastric cancer with compound I-1. FIG. 5A depicts the % survival of Barrett's high grade dysplasia stem cells at higher concentration of compound I-1. FIG. 5B depicts the % survival of Barrett's high grade dysplasia stem cells at lower concentration of compound I-1. FIG. 5C depicts the % survival of diffuse gastric cancer stem cells at higher concentration of compound I-1. FIG. 5D depicts the % survival of diffuse gastric cancer stem cells at lower concentration of compound I-1.
(§1) FIG. 8 depicts treatment of Barrett's low grade dysplasia and high grade dysplasia with compounds I-1; I-2; I-6; and I-3. […]
(§2) The present example describes methods used for testing the efficacy of compounds described herein. […] Single cell-derived clones are generated by single cell FACS sorting to 384 well plates and wells with individual colonies are expanded, analyzed by molecular genetics, and grown as discrete clones.
(§3) Approximately 400,000 cells from discrete clones relevant to particular disease states (cancer, chronic inflammatory disease) are plated into 384 plates previously seeded with irradiated feeder cells, allowed to grow for 5 days, and then exposed to the test compounds in a serial dilution format. […] Human cell numbers are quantified via high-throughput imaging technology (CellInsight CX7 LED, Thermo), and data analyzed by Excel.

[2] = system: Barrett's low grade dysplasia stem cells; test: percent survival of Barrett's low grade dysplasia stem cells; assay type: cell-based, human; conditions: FIG. 6A, 6B
Excerpt: (§4) FIG. 6 depicts treatment of Barrett's low grade dysplasia and esophageal adenocarcinoma with compound I-1. FIG. 6A depicts the % survival of Barrett's low grade dysplasia stem cells at higher concentration of compound I-1. FIG. 6B depicts the % survival of Barrett's low grade dysplasia stem cells at lower concentration of compound I-1. FIG. 6C depicts the % survival of esophageal adenocarcinoma stem cells at higher concentration of compound I-1. FIG. 6D depicts the % survival of esophageal adenocarcinoma cells at lower concentration of compound I-1.
as §1, §2, §3

[3] = system: Barrett's esophagus cells; test: percent survival of Barrett's esophagus cells; assay type: cell-based, human; conditions: FIG. 1; for sensitivity of Barrett's esophagus cells compared to the other compounds of Table 1: versus other IAP inhibitors of Table 1
Description: FIG. 1 depicts treatment of Barrett's esophagus cells with compounds described herein. The concentration of the compound used and percent survival of the cells is provided.
Cells isolated from individuals diagnosed with or suffering from Barrett's esophagus were treated with the indicated compounds.
(§5) The present example describes methods used for testing the efficacy of compounds described herein. The selective growth of stem cells of cancers, of their precursor lesions, and of normal and chronically diseased epithelial tissues is described in the references below. In brief, biopsied tissues are reduced to single cell suspensions and plated onto lawns of irradiated 3T3-J2 feeder cells in specialized StemEcho media and libraries of colonies are evident in 7-10 days. Single cell-derived clones are generated by single cell FACS sorting to 384 well plates and wells with individual colonies are expanded, analyzed by molecular genetics, and grown as discrete clones.
(§6) Approximately 400,000 cells from discrete clones relevant to particular disease states (cancer, chronic inflammatory disease) are plated into 384 plates previously seeded with irradiated feeder cells, allowed to grow for 5 days, and then exposed to the test compounds in a serial dilution format. After 2-5 days, the cells are fixed using paraformaldehyde and the human cells are labelled with human-specific antibodies followed by fluorochrome-labelled secondary antibodies. Human cell numbers are quantified via high-throughput imaging technology (CellInsight CX7 LED, Thermo), and data analyzed by Excel.

[4] = system: lung adenocarcinoma stem cells; test: percent survival of lung adenocarcinoma stem cells; assay type: cell-based, human; conditions: FIG. 3A, 3B
Description: FIG. 3 depicts treatment of lung adenocarcinoma stem cells with compound I-1. FIG. 3A depicts the % survival of lung adenocarcinoma stem cells at higher concentration of compound I-1. FIG. 3B depicts the % survival of lung adenocarcinoma stem cells at lower concentration of compound I-1.
Specifically, lung adenocarcinoma stem cells from an additional individual were tested and treated at higher (nM) or low (pM) concentrations of I-1 (FIG. 3A and FIG. 3B).
as §5, with “In brief, biopsied tissues are reduced to single cell suspensions and plated onto lawns of irradiated 3T3-J2 feeder cells in specialized StemEcho media and libraries of colonies are evident in 7-10 days.” left out
as §3

[5] = system: advanced Barrett's esophagus stem cells; test: percent survival of advanced Barrett's esophagus stem cells; assay type: cell-based, human
Excerpt: FIG. 4 depicts treatment of advanced Barrett's esophagus stem cells with compound I-1 in cells isolated from two different patients. FIG. 4A depicts the % survival of Barrett's esophagus stem cells from a first patient at higher concentration of compound I-1. FIG. 4B depicts the % survival of Barrett's esophagus cells from a first patient at lower concentration of compound I-1. FIG. 4C depicts the % survival of Barrett's esophagus cells from a second patient at higher concentration of compound I-1. FIG. 4D depicts the % survival of Barrett's esophagus stem cells from a second patient at lower concentration of compound I-1.
FIG. 7 depicts treatment of various diseases with compounds I-2 and I-5. FIG. 7A depicts % survival of diffused gastric adenocarcinoma with ascites cells with varying concentrations of compounds I-2 and I-5. FIG. 7B depicts % survival of advanced Barret's cells with varying concentrations of compounds I-2 and I-5. FIG. 7C depicts % survival of high-grade serous ovarian cancer cells with varying concentrations of compounds I-2 and I-5. […]
as §2, with “clones. […]” for “clones.”

[6] = system: esophageal adenocarcinoma stem cells; test: percent survival of esophageal adenocarcinoma stem cells; assay type: cell-based, human; conditions: FIG. 2; versus other IAP inhibitors of Table 1
Excerpt: FIG. 2 depicts treatment of esophageal adenocarcinoma stem cells with compounds described herein. The concentration of the compound used and percent survival of the cells is provided.
as §4, with “FIG. 6D depicts the % survival of esophageal adenocarcinoma cells at lower concentration of compound I-1.” left out
as §2, §3

[7] = system: gastric cancer stem cells; test: percent survival of (diffuse) gastric cancer stem cells; assay type: cell-based, human; conditions: two individuals with diffuse gastric cancer; FIG. 7A, 7D
Excerpt: FIG. 7 depicts treatment of various diseases with compounds I-2 and I-5. FIG. 7A depicts % survival of diffused gastric adenocarcinoma with ascites cells with varying concentrations of compounds I-2 and I-5. FIG. 7B depicts % survival of advanced Barret's cells with varying concentrations of compounds I-2 and I-5. FIG. 7C depicts % survival of high-grade serous ovarian cancer cells with varying concentrations of compounds I-2 and I-5. FIG. 7D depicts % survival of gastric cancer with varying concentrations of compounds I-2 and I-5. FIG. 7E depicts % survival taxol resistant ovarian cancer stem cells with varying concentrations of compounds I-2 and I-5. […]
as §2, §3

[8] = system: pancreatic cancer stem cells; test: percent survival of pancreatic cancer stem cells; assay type: cell-based, human; conditions: varying concentrations; FIG. 9
Excerpt: FIG. 9 depicts treatment of pancreatic cancer with compounds I-9, I-10; I-3; I-11. FIG. 9 depicts the % survival of pancreatic cancer stem cells at varying concentrations of I-9; I-10; I-3; I-11.
as §5, §6

cIAP1 = conditions: inhibits cIAP1; cited from earlier work

CN[C@@H](C)C(=O)N[C@H](C(=O)N1CCC[C@H]1C(=O)N[C@H]1c2ccccc2C[C@H]1OCCOCCNc1c(NCCOCCO[C@@H]2Cc3ccccc3[C@@H]2NC(=O)[C@@H]2CCCN2C(=O)[C@@H](NC(=O)[C@H](C)NC)C2CCCCC2)c(=O)c1=O)C1CCCCC1 [I-1]
sensitivity of Barrett's high grade dysplasia stem cells [1]: sensitive | sensitivity of Barrett's low grade dysplasia stem cells [2]: sensitive | sensitivity of Barrett's esophagus cells [3]: particularly sensitive | sensitivity of Barrett's esophagus cells compared to the other compounds of Table 1 [3]: significantly more sensitive | sensitivity of lung adenocarcinoma stem cells ([4]; higher (nM) or low (pM) concentrations): demonstrate the sensitivity | lethality compared with another highly potent cytotoxic treatment ([4]; higher and lower concentration): comparable lethality to another highly potent cytotoxic treatment | sensitivity of advanced Barrett's esophagus stem cells ([5]; two individuals, higher (nM) or low (pM) concentrations, FIG. 4A-4D): demonstrates the sensitivity | sensitivity of esophageal adenocarcinoma stem cells compared to the other compounds of Table 1 [6]: significantly more sensitive

CN[C@@H](C)C(=O)N[C@H](C(=O)N1CCC[C@H]1C(=O)N[C@H]1c2ccccc2C[C@H]1OCCNc1c(NCCO[C@@H]2Cc3ccccc3[C@@H]2NC(=O)[C@@H]2CCCN2C(=O)[C@@H](NC(=O)[C@H](C)NC)C2CCCCC2)c(=O)c1=O)C1CCCCC1 [I-2]
sensitivity of Barrett's esophagus cells [3]: particularly sensitive | sensitivity of Barrett's esophagus cells compared to the other compounds of Table 1 [3]: significantly more sensitive | sensitivity of gastric cancer stem cells [7]: sensitive | sensitivity of advanced Barrett's esophagus stem cells ([5]; additional individual, varying concentrations, FIG. 7B): notably sensitive | sensitivity of esophageal adenocarcinoma stem cells compared to the other compounds of Table 1 [6]: significantly more sensitive

CN[C@@H](C)C(=O)N[C@H](C(=O)N1CCC[C@H]1C(=O)N[C@H]1c2ccccc2C[C@H]1OCCCCCNc1c(NCCCCCO[C@@H]2Cc3ccccc3[C@@H]2NC(=O)[C@@H]2CCCN2C(=O)[C@@H](NC(=O)[C@H](C)NC)C2CCCCC2)c(=O)c1=O)C1CCCCC1 [I-3]
sensitivity of pancreatic cancer stem cells [8]: sensitive

CN[C@@H](C)C(=O)N[C@H](C(=O)N1CCC[C@H]1C(=O)N[C@H]1c2ccccc2C[C@H]1OCCCNc1c(NCCCO[C@@H]2Cc3ccccc3[C@@H]2NC(=O)[C@@H]2CCCN2C(=O)[C@@H](NC(=O)[C@H](C)NC)C2CCCCC2)c(=O)c1=O)C1CCCCC1 [I-9]
sensitivity of pancreatic cancer stem cells [8]: sensitive

CN[C@@H](C)C(=O)N[C@H](C(=O)N1CCC[C@H]1C(=O)N[C@H]1c2ccccc2C[C@H]1OCCCCNc1c(NCCCCO[C@@H]2Cc3ccccc3[C@@H]2NC(=O)[C@@H]2CCCN2C(=O)[C@@H](NC(=O)[C@H](C)NC)C2CCCCC2)c(=O)c1=O)C1CCCCC1 [I-10]
sensitivity of pancreatic cancer stem cells [8]: sensitive

CN[C@@H](C)C(=O)N[C@H](C(=O)N1CCC[C@H]1C(=O)N[C@H]1c2ccccc2C[C@H]1OCCCCCCNc1c(NCCCCCCO[C@@H]2Cc3ccccc3[C@@H]2NC(=O)[C@@H]2CCCN2C(=O)[C@@H](NC(=O)[C@H](C)NC)C2CCCCC2)c(=O)c1=O)C1CCCCC1 [I-11]
sensitivity of pancreatic cancer stem cells [8]: sensitive

CN[C@@H](C)C(=O)N[C@H](C(=O)N1CCC[C@H]1c1nc(C(=O)c2ccc(F)cc2)cs1)C1CCCCC1 [LCL 161]
IC50 (cIAP1): 0.4 nM
